Experimental data published in patent US20250163119A1, “COMPOUNDS FOR THE TREATMENT OF DIABETES OR OBESITY” (Eli Lilly and Company, priority 2023, published 2025).
Values joined by “and” are separate entries in the source; they are usually repeats but may differ in a detail not shown here. Equal entries are not always repeated. *1 amine or outer side, *2 acyl side, *3 side chain or, on linkers, in order; H or OH if unused. Side-chain parts run from the residue outwards. [ ]: non-standard residue; d: D form. The star is where a group is joined. C20 diacid = O=C(O)CCCCCCCCCCCCCCCCCCC(=O)*; γGlu = O=C(O)[C@H](CCC(=O)[*:2])N[*:1]; εLys = N[C@@H](CCCCN[*:1])C(=O)[*:2]; pGlu = O=C1CC[C@@H](C(=O)O)N1; αMeL = CC(C)C[C@](C)(N)C(=O)O; AEEA = NCCOCCOCC(=O)O; Aib = CC(C)(N)C(=O)O

Key:
[1] = Pharmacokinetics in Yucatan mini-pigs, single subcutaneous or intravenous dose; assay type: in vivo
Experimental: Plasma concentrations of compounds were determined by LC/MS methods. For each assay, the compound and an internal standard (IS), were extracted from 100% mouse, rat, pig, or monkey plasma (70 μL) using Isopropanol-Methanol. Two distinct layers were formed upon centrifugation with the compound and the IS located in the supernatant layer. An aliquot of the supernatant (150 μL) was transferred to a Waters Sirocco Protein Precipitation Plate. The supernatant was eluted using a positive pressure manifold. The supernatant was mixed with 100-2 Water-Formic acid (400 μL) in a pretreated Sep-Pak tC18 SPE plate and eluted to waste. The peptide and IS were eluted with Acetonitrile-Formic acid (100 μL) in 2 steps (50 μL each step). The elution (40 μL) from SPE plate was mixed with diluent solution (1.875 μL 5× invitrosol and 3.125 μL 1% formic acid in water, 80 μL). A final sample (10 μl) was loaded onto a Xselect CSH C18 IS column (3.5 μm 2.1×20 mm). The column effluent was directed into a Thermo Fisher Scientific Orbitrap (Exploris 240) mass spectrometer for detection and quantitation.
Male Yucatan mini-pigs were administered a single subcutaneous dose or intravenous dose (19 or 99 nmol/kg) of compound in 40 mM Tris-HCl 5% D-mannitol (pH 8) at a volume of 0.01 or 0.05 mL/kg. Blood was collected from each animal at 0.083 (IV only), 0.5, 3, 6, 24, 48, 72, 96, 168, 240, 336, 408, and 504 hours postdose for pharmacokinetic characterization.

[2] = Pharmacokinetics in Sprague Dawley rats, single subcutaneous or intravenous dose (incl. 10, 30, 100 nmol/kg dose response); assay type: in vivo
[3] = male Yucatan pigs, single subcutaneous dose 18 nmol/kg, individual animal
[4] = male, Yucatan mini-pig, minipig, plasma, iv, 18 nmol/kg, single intravenous dose 18 nmol/kg, individual animal
[5] = male, Yucatan mini-pig, minipig, plasma, iv, 18 nmol/kg, single intravenous dose 18 nmol/kg, mean
[6] = single intravenous dose 18 nmol/kg, male Yucatan pigs, individual animal
[7] = dose response, single subcutaneous dose 10 nmol/kg, male Sprague Dawley rats, individual animal
[8] = dose response, single subcutaneous dose 30 nmol/kg, male Sprague Dawley rats, individual animal
[9] = dose response, single subcutaneous dose 100 nmol/kg, male Sprague Dawley rats, individual animal
[10] = male Sprague Dawley rats, single intravenous dose 183 nmol/kg, individual animal
[11] = male, Sprague Dawley, rat, plasma, iv, 183 nmol/kg, single intravenous dose 183 nmol/kg, Mean
[12] = male, Sprague Dawley, rat, plasma, iv, 183 nmol/kg, single intravenous dose 183 nmol/kg, individual animal
[13] = single subcutaneous dose 183 nmol/kg, male Sprague Dawley rats, individual animal

[pGlu]GSPSGIVTS[αMeL]DVPT[Aib][αMeL]LQKILEQERAEKARQQAK([γGlu-AEEA-εLys-C20 diacid])EAAEILAQV-NH2 [SEQ ID NO: 22, Pyr-GSPSGIVTS αMeL DVPT Aib αMeL LQKILEQERAEKARQQAK(γE-(2-[2-(2-Amino-ethoxy)-ethoxy]-acetyl)-ϵK-CO-(CH2)18-CO2H)EAAEILAQV-NH2]
AUC0-inf ([1]; Yucatan mini-pig, minipig, plasma, sc, male Yucatan pigs, single subcutaneous dose 18 nmol/kg, Mean, read-out: AUC0-inf): 22.5 µM·h | Cmax ([1]; Yucatan mini-pig, minipig, plasma, sc, male Yucatan pigs, single subcutaneous dose 18 nmol/kg, Mean, read-out: Cmax): 154 nM | AUC0-inf [1, 3]: 23.9 µM·h and 21 µM·h | CL/F [1, 3]: 0.886 mL/h/kg | Cmax [1, 3]: 165 nM and 143 nM | T1/2 [1, 3]: 85.8 h | Tmax [1, 3]: 6.0 h | clearance [1, 4]: 0.82 mL/h/kg | half-life [1, 4]: 90.1 h | clearance [1, 5]: 0.733 mL/h/kg | half-life [1, 5]: 95.6 h | half-life ([1]; male, Yucatan mini-pig, minipig, plasma, sc, 18 nmol/kg, single subcutaneous dose 18 nmol/kg, Mean): 82.5 h | CL/F ([1]; male, Yucatan mini-pig, minipig, plasma, sc, 18 nmol/kg, single subcutaneous dose 18 nmol/kg, Mean, read-out: CL/F (converted)): 0.832 mL/h/kg | Tmax ([1]; male, Yucatan mini-pig, minipig, plasma, sc, 18 nmol/kg, single subcutaneous dose 18 nmol/kg, Mean, read-out: Tmax): 15 h | half-life ([1]; male, Yucatan mini-pig, minipig, plasma, sc, 18 nmol/kg, single subcutaneous dose 18 nmol/kg, individual animal): 79.1 h | CL/F ([1]; male, Yucatan mini-pig, minipig, plasma, sc, 18 nmol/kg, single subcutaneous dose 18 nmol/kg, individual animal, read-out: CL/F (converted)): 0.777 mL/h/kg | AUC0-inf ([1]; minipig, plasma, single intravenous dose 18 nmol/kg, male Yucatan pigs, mean, read-out: AUC0-inf): 25.3 µM·h | C0 ([1]; minipig, plasma, single intravenous dose 18 nmol/kg, male Yucatan pigs, mean, read-out: C0): 418 nM | AUC0-inf [1, 6]: 22.3 µM·h and 28.3 µM·h | C0 [1, 6]: 373 nM and 462 nM | CL [1, 6]: 0.646 mL/h/kg | T1/2 [1, 6]: 101 h | AUC0-inf [2, 7]: 2.73 µM·h and 2.81 µM·h and 3.02 µM·h | CL/F [2, 7]: 3.60 mL/h/kg and 3.54 mL/h/kg | Cmax [2, 7]: 49.5 nM and 51.3 nM and 48.6 nM | T1/2 [2, 7]: 23.1 h and 41.5 h | AUC0-inf [2, 8]: 7.52 µM·h and 8.6 µM·h and 7.16 µM·h | CL/F [2, 8]: 3.62 mL/h/kg and 4.25 mL/h/kg | Cmax [2, 8]: 126 nM and 132 nM and 128 nM | T1/2 [2, 8]: 33.6 h and 24.1 h | AUC0-inf [2, 9]: 26.7 µM·h and 26 µM·h and 26.3 µM·h | CL/F [2, 9]: 3.91 mL/h/kg | Cmax [2, 9]: 372 nM and 416 nM and 369 nM | T1/2 [2, 9]: 25.9 h and 30.7 h | AUC0-inf [2, 10]: 88.4 µM·h and 79.6 µM·h and 92.3 µM·h | C0 [2, 10]: 3240 nM and 5390 nM and 5200 nM | CL [2, 10]: 2.30 mL/h/kg and 1.98 mL/h/kg | T1/2 [2, 10]: 21.3 h and 22.9 h | clearance [2, 11]: 2.12 mL/h/kg | half-life [2, 11]: 23 h | clearance [2, 12]: 2.07 mL/h/kg | half-life [2, 12]: 24.7 h | half-life ([2]; male, Sprague Dawley, rat, plasma, sc, 10 nmol/kg, dose response, single subcutaneous dose 10 nmol/kg, individual animal): 30.4 h | CL/F ([2]; male, Sprague Dawley, rat, plasma, sc, 10 nmol/kg, dose response, single subcutaneous dose 10 nmol/kg, individual animal, read-out: CL/F (converted)): 3.75 mL/h/kg | Tmax ([2]; male, Sprague Dawley, rat, plasma, sc, 10 nmol/kg, dose response, single subcutaneous dose 10 nmol/kg, individual animal, read-out: Tmax): 24 h | half-life ([2]; male, Sprague Dawley, rat, plasma, sc, 10 nmol/kg, dose response, single subcutaneous dose 10 nmol/kg, mean): 31.7 h | CL/F ([2]; male, Sprague Dawley, rat, plasma, sc, 10 nmol/kg, dose response, single subcutaneous dose 10 nmol/kg, mean, read-out: CL/F (converted)): 3.63 mL/h/kg | Tmax ([2]; male, Sprague Dawley, rat, plasma, sc, 10 nmol/kg, dose response, single subcutaneous dose 10 nmol/kg, mean, read-out: Tmax): 24 h | half-life ([2]; male, Sprague Dawley, rat, plasma, sc, 30 nmol/kg, dose response, single subcutaneous dose 30 nmol/kg, individual animal): 27.4 h | CL/F ([2]; male, Sprague Dawley, rat, plasma, sc, 30 nmol/kg, dose response, single subcutaneous dose 30 nmol/kg, individual animal, read-out: CL/F (converted)): 4.07 mL/h/kg | Tmax ([2]; male, Sprague Dawley, rat, plasma, sc, 30 nmol/kg, dose response, single subcutaneous dose 30 nmol/kg, individual animal, read-out: Tmax): 24 h | half-life ([2]; male, Sprague Dawley, rat, plasma, sc, 30 nmol/kg, dose response, single subcutaneous dose 30 nmol/kg, mean): 28.4 h | CL/F ([2]; male, Sprague Dawley, rat, plasma, sc, 30 nmol/kg, dose response, single subcutaneous dose 30 nmol/kg, mean, read-out: CL/F (converted)): 3.98 mL/h/kg | Tmax ([2]; male, Sprague Dawley, rat, plasma, sc, 30 nmol/kg, dose response, single subcutaneous dose 30 nmol/kg, mean, read-out: Tmax): 24 h | half-life ([2]; male, Sprague Dawley, rat, plasma, sc, 100 nmol/kg, dose response, single subcutaneous dose 100 nmol/kg, individual animal): 28.6 h | CL/F ([2]; male, Sprague Dawley, rat, plasma, sc, 100 nmol/kg, dose response, single subcutaneous dose 100 nmol/kg, individual animal, read-out: CL/F (converted)): 3.85 mL/h/kg | Tmax ([2]; male, Sprague Dawley, rat, plasma, sc, 100 nmol/kg, dose response, single subcutaneous dose 100 nmol/kg, individual animal, read-out: Tmax): 24 h | half-life ([2]; male, Sprague Dawley, rat, plasma, sc, 100 nmol/kg, dose response, single subcutaneous dose 100 nmol/kg, mean): 28.4 h | CL/F ([2]; male, Sprague Dawley, rat, plasma, sc, 100 nmol/kg, dose response, single subcutaneous dose 100 nmol/kg, mean, read-out: CL/F (converted)): 3.89 mL/h/kg | Tmax ([2]; male, Sprague Dawley, rat, plasma, sc, 100 nmol/kg, dose response, single subcutaneous dose 100 nmol/kg, mean, read-out: Tmax): 24 h | half-life ([2]; male, Sprague Dawley, rat, plasma, sc, 183 nmol/kg, single subcutaneous dose 183 nmol/kg, individual animal): 26.2 h | CL/F ([2]; male, Sprague Dawley, rat, plasma, sc, 183 nmol/kg, single subcutaneous dose 183 nmol/kg, individual animal, read-out: CL/F (converted)): 4.75 mL/h/kg | Tmax ([2]; male, Sprague Dawley, rat, plasma, sc, 183 nmol/kg, single subcutaneous dose 183 nmol/kg, individual animal, read-out: Tmax): 24 h | half-life ([2]; male, Sprague Dawley, rat, plasma, sc, 183 nmol/kg, single subcutaneous dose 183 nmol/kg, mean): 23.8 h | CL/F ([2]; male, Sprague Dawley, rat, plasma, sc, 183 nmol/kg, single subcutaneous dose 183 nmol/kg, mean, read-out: CL/F (converted)): 5.04 mL/h/kg | Tmax ([2]; male, Sprague Dawley, rat, plasma, sc, 183 nmol/kg, single subcutaneous dose 183 nmol/kg, mean, read-out: Tmax): 32 h | AUC0-inf ([2]; rat, plasma, sc, dose response, single subcutaneous dose 10 nmol/kg, male Sprague Dawley rats, mean, read-out: AUC0-inf): 2.85 µM·h | Cmax ([2]; rat, plasma, sc, dose response, single subcutaneous dose 10 nmol/kg, male Sprague Dawley rats, mean, read-out: Cmax): 49.8 nM | AUC0-inf ([2]; rat, plasma, sc, dose response, single subcutaneous dose 30 nmol/kg, male Sprague Dawley rats, mean, read-out: AUC0-inf): 7.76 µM·h | Cmax ([2]; rat, plasma, sc, dose response, single subcutaneous dose 30 nmol/kg, male Sprague Dawley rats, mean, read-out: Cmax): 129 nM | AUC0-inf ([2]; rat, plasma, sc, dose response, single subcutaneous dose 100 nmol/kg, male Sprague Dawley rats, mean, read-out: AUC0-inf): 26.3 µM·h | Cmax ([2]; rat, plasma, sc, dose response, single subcutaneous dose 100 nmol/kg, male Sprague Dawley rats, mean, read-out: Cmax): 386 nM | AUC0-inf ([2]; rat, plasma, sc, single subcutaneous dose 183 nmol/kg, male Sprague Dawley rats, mean, read-out: AUC0-inf): 36.8 µM·h | Cmax ([2]; rat, plasma, sc, single subcutaneous dose 183 nmol/kg, male Sprague Dawley rats, mean, read-out: Cmax): 583 nM | AUC0-inf ([2]; rat, plasma, male Sprague Dawley rats, single intravenous dose 183 nmol/kg, Mean, read-out: AUC0-inf): 86.8 µM·h | C0 ([2]; rat, plasma, male Sprague Dawley rats, single intravenous dose 183 nmol/kg, Mean, read-out: C0): 4610 nM | AUC0-inf [2, 13]: 38.9 µM·h and 34.3 µM·h and 37.1 µM·h | CL/F [2, 13]: 5.39 mL/h/kg and 4.99 mL/h/kg | Cmax [2, 13]: 783 nM and 439 nM and 527 nM | T1/2 [2, 13]: 21.8 h and 23.5 h | Tmax [2, 13]: 48 h
